# Assay results reported in patent publication US5086053A, “Derivatives of 1,3,4-thiadiazole, a method of obtaining them and pharmaceutical compositions containing them” (Sanofi, priority 1988, dated 1992).
# Counter-ions that a name gives are not always drawn. Like-named read-outs stand apart in the source and are kept apart here.
# Legend:
# [1] = biological target: T1, type M2 muscarinic cholinergic receptor (Cavia porcellus, UniProt H0VRN8); assay: Affinity for type M2 muscarinic cholinergic receptor: displacement of tritiated N-methylscopolamine (3H-NMS) on homogenized smooth muscle of guinea-pig ileum; type: binding; details: displacement of 3H-NMS, 30° C., 20 minutes
# T1 construct: studies in vitro on homogenized smooth muscle of guinea-pig ileum; from tissue; host or cells: guinea-pig ileum smooth muscle homogenate
# T1 sequence (H0VRN8 1-466): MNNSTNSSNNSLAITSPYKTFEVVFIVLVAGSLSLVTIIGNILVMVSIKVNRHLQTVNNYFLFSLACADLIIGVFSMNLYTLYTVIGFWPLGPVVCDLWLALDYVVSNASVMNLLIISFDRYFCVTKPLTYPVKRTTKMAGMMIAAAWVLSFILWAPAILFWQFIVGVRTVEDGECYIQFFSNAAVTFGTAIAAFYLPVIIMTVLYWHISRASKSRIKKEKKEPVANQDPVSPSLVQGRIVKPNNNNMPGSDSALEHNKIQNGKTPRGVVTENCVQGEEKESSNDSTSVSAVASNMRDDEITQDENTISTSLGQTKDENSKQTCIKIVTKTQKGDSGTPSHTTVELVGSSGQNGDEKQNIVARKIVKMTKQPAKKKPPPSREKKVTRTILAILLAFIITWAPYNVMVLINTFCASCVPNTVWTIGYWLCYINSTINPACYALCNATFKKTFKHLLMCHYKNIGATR
# Text: BIOCHEMICAL STUDY IN VITRO
# M1 type receptors are concentrated in certain zones of the brain such as the hippocampus, the cerebral cortex, the corpus striatum and the sympathetic ganglia. These connection sites can be selectively tagged with tritiated pirenzepine (^3 H--PZ). Type M2 receptors predominate in the heart and the ileum and can be tagged with tritiated N-methylscopolamine (^3 H--NMS). In order to determine the selectivity of the products according to the invention, with regard to sites M1 and M2, a study was made of their interaction in vitro, with high-affinity tagging with ^3 H--PZ and ^3 H--NMS, on rat hippocampus membranes and smooth muscle from guinea-pig ileum respectively.
# b) Search for an affinity for the type M2 muscarinic cholinergic receptor
# Interaction with type M2 muscarinic receptors was studies in vitro on homogenized smooth muscle of guinea-pig ileum by measuring the displacement of tritiated N-methyl-scopolamine from its specific tagging sites. 50 μl portions of homogenized smooth muscle form guinea-pig ileum (0.625% w/v) in 20 mM of HEPES buffer: 2-((2-hydroxy 4-ethyl) piperazin-1-yl) ethanesulphonic acid containing NaCl (100 mM) and Mg Cl2 (10 mM) (final pH=7.5) were incubated at 30° C. for 20 minutes int eh presence of ^3 H--NMS (85 Ci/mmol/0.3 nM final) with increasing concentrations of the products under test. The final volume was 1 ml. The reaction was stopped by centrifuging for 5 minutes at 15000 g. Non-specific tagging was determined in the presence of […] of atropine sulphate.
# The results are expressed as 50% inhibiting concentrations (IC50), i.e. the concentration (in μM) which induces a 50% displacement of the tritiated ligand fixed to the membrane receptors. The IC50 displacement of ^3 H--PZ represents affinity for the M1 receptor, and
# The IC50 displacement of ^3 H--NMS represents affinity for the M2 receptor.
# [2] = tested on: M1 central muscarinic cholinergic receptors; assay: Antagonism to rotatory behaviour induced by intrastriatal injection of pirenzepine in the mouse; type: in vivo, mouse (female, Swiss, CD 1); details: for change in vivo at 3 mg/kg: Mus musculus, po, read-out: % inhibition of pirenzepine-induced rotations
# Procedure: Intrastriatal injection of PZ into the mouse induces rotatory behaviour. Antagonism to this behaviour by the products according to the invention was studied.
# The products according to the invention were administered in doses of 0.3 or 3 mg/kg orally after being solubilized in distilled water or suspended in a 5% solution of gum arabic. The controls were given pure solvent under the same conditions.
# The animals used were female mice (Swiss, CD 1, Charles River, France), body weight between 25 and 30 grams.
# Pirenzepine was dissolved in a phosphate buffer, the pH of the solution being 6.
# The products under study or solvents thereof were orally administered, using a probang, in a volume of 0.4 ml per 20 g body weight.
# The number of contralateral rotations (in the opposite direction to the side of the injection) was counted for three 2-minute periods after injection of pirenzepine (minutes 2-4, 8-10 and 13-15) and was then totalled for each animal. Each treatment comprised three to four doses and ten animals per dose. For each treatment, the total number of rotations and the percentage inhibition relative to the control batch (solvent) was calculated.
# [3] = biological target: T2, type M1 muscarinic cholinergic receptor (Rattus norvegicus, UniProt P08482); assay: biochemical; type: binding; details: for ratio R between the IC50 for receptors M1 and M2 (selectivity): values correspond to IC50 3H-NMS (M2) / IC50 3H-PZ (M1)
# T2 sequence (P08482 1-460): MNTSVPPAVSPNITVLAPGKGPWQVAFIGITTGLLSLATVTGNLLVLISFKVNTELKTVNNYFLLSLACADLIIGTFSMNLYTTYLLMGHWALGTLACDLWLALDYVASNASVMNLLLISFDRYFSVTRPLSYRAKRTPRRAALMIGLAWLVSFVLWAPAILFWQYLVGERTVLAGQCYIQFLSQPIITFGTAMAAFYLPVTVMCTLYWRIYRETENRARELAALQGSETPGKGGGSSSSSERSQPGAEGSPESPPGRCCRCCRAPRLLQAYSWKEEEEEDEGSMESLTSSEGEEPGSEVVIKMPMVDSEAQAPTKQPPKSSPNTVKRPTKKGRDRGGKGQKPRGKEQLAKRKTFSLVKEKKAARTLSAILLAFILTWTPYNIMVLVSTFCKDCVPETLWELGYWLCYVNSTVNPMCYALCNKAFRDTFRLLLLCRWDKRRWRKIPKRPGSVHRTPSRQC
# Procedure: a) Search for an affinity for the type M1 muscarinic cholinergic receptor
# The interaction of molecules with type M1 muscarinic receptors was studied in vitro on homogenized rat hippocampus, by studying the displacement of tritiated pirenzepine form its specific tagging sites. 10 μl portions of homogenized rat hippocampus (5% w/v) in an Na2 HPO4 buffer (50 mM, pH 7.40) were incubated at 4° C. for 2 hours in the presence of ^3 H--Pz (76 Ci/mmol/l nM final), with increasing concentrations of the product under study. The final volume was 2 ml. The reaction was stopped by centrifuging for 10 minutes at 50 000 g. After decantation and washing of the bottoms, the tagged radioactivity was counted by liquid scintillation. Non-specific tagging was determined in the presence of 10 μM of atropine sulphate. The 50 inhibiting concentration (IC50) was determined graphically.
# [4] = Acute oral toxicity in mice; parameters: species or system Swiss, CD 1); details: mouse, in vivo, female mice, 24 hours after administration, read-out: 50% lethal dose (DL50)
# Procedure: The acute toxicity was determined for one product according to the invention: SR 45341 A. The product was orally administered in increasing doses to a batch of 10 female mice (Swiss, CD 1, Charles River, France), body weight 20 g.
# The death rate caused by the product under study was noted during the 24 hours after administration of the product. The 50% lethal dose (DL50) was determined, i.e. the dose which killed 50% of the animals.
# [5] = 3 mg/kg p.o., 4 hours before pirenzepine 1 μg intrastriatal, *p<0.05, **p<0.01 Student's test
# [6] = displacement of 3H-PZ, rat hippocampus homogenate, 4° C., 2 hours, read-out: IC50 3H-PZ (M1)
Compound,IC50 [1],"change in vivo at 3 mg/kg [2, 5]","IC50 [3, 6]",ratio R between the IC50 for receptors M1 and M2 (selectivity) [3],also measured
CN(C)CCCNc1nnc(-c2ccc(Cl)cc2Cl)s1 [SR 45422 A],26 µM,-50%,0.7 µM,37,
"c1ccc(-c2nnc(NCCN3CCOCC3)s2)cc1 [A, reference compound]",,-8%,,,
"FC(F)(F)c1cccc(-c2nnc(NCCN3CCOCC3)s2)c1 [B, reference compound]",,,,,"% inhibition of pirenzepine-induced rotations ([2]; 0,3 mg/kg p.o., 4 hours before pirenzepine 1 μg intrastriatal, *p<0.05, **p<0.01 Student's test): Inactive; % inhibition of pirenzepine-induced rotations [2, 5]: Inactive"
Clc1ccc(-c2nnc(NCCCN3CCCC3)s2)c(Cl)c1 [SR 45458 A],12 µM,-28%,0.8 µM,15,
"CN1CCC(N(C)c2nnc(-c3ccccc3)s2)CC1 [SR 44828 A, Dihydrochloride and hydrate of 2-[N-methyl N-(1-methyl 4-piperidyl)amino-5-phenyl-1,3,4-thiadiazole]",,,,,change in vivo at 3 mg/kg ([2]; 4 h): -26%; IC50 [3]: 9 µM
CCN(CC)CCCNc1nnc(-c2c(C)cc(C)cc2C)s1 [SR 45352 A],30 µM,-32%,5.5 µM,5,
Clc1ccc(-c2nnc(NCCCN3CCOCC3)s2)cc1 [SR 45520 A],80 µM,-75%,4.5 µM,17,
Clc1ccc(-c2nnc(NCc3cccnc3)s2)c(Cl)c1 [SR 45459 A],,-29%,,,
Clc1ccc(-c2nnc(NCCc3ccccn3)s2)c(Cl)c1 [SR 45492 A],,-50%,,,
"CN(C)CCNc1nnc(-c2ccccc2)s1 [C, reference compound]",,-12%,,,
Clc1ccc(-c2nnc(NCCCn3ccnc3)s2)c(Cl)c1 [SR 45504 A],40 µM,,3 µM,13,
CN(C)CCCNc1nnc(-c2ccc(Cl)cc2)s1 [SR 45480 A],50 µM,-54%,4.5 µM,11,
"CNCCCNc1nnc(-c2c(C)cc(C)cc2C)s1.Cl.Cl [SR 45418 A, 2-(3-methylaminopropylamino) 5-(2,4,6-trimethylphenyl) 1,3,4-thiadiazole dihydrochloride]",> 100 µM,-77%,20 µM,> 5,
CN(Cc1cccnc1)c1nnc(-c2ccc(F)cc2)s1 [SR 45530 A],,-41%,,,
CCN(CC)CCCNc1nnc(-c2ccc(Cl)cc2Cl)s1 [SR 45481 A],,-67%,,,
Fc1ccc(-c2nnc(NCc3cccnc3)s2)cc1 [SR 45447 A],,-62%,,,

Compound,IC50 [1],"change in vivo at 3 mg/kg [2, 5]","IC50 [3, 6]",ratio R between the IC50 for receptors M1 and M2 (selectivity) [3],also measured
Cc1cc(C)c(-c2nnc(NCCCN(C)C)s2)c(C)c1Br [SR 45340 A],27 µM,-95%,3.5 µM,6,
Clc1ccc(-c2nnc(NCCCn3ccnc3)s2)c(Cl)c1 [SR - A],,-60%,,,
"CCN(CC)CCCCNc1nnc(-c2ccccc2)s1 [SR 45339 A, Dihydrochloride of 2-(4-diethylaminobutylamino)-5-phenyl-1,3,4-thiadiazole]",34 µM,-77%,5 µM,7,
Cc1cc(C)c(-c2nnc(NCc3cccnc3)s2)c(C)c1 [SR 45417 A],,-43%,,,
CNCCCNc1nnc(-c2ccc(Cl)cc2Cl)s1 [SR 45479 A],70 µM,,14 µM,5,
"CNC1CCN(c2nnc(-c3ccccc3)s2)CC1 [SR 44825 A, 2-(4-methylaminopiperidino)-5-phenyl-1,3,4-thiadiazole dihydrochloride]",80 µM,,,,
CN(C)CCCNc1nnc(-c2ccc(F)cc2)s1 [SR 45421 A],,-38%,,,
"CN1CCCC(CNc2nnc(-c3ccc(Cl)cc3)s2)C1 (centres unmarked) [SR 45491 A, 2-[(N-methyl 3-piperidyl)methylamino]-5-(4-chlorophenyl)-1,3,4-thiadiazoledihydrochloride]",,-57%,,,
Clc1ccc(-c2nnc(NCc3cccnc3)s2)cc1 [SR 45488 A],,-49%,,,
CN(C)CCCNc1nnc(-c2ccccc2)s1 [SR 44824 A],> 100 µM,-27%,3 µM,> 30,
CCN(CCCN(C)C)c1nnc(-c2ccc(F)cc2)s1 [SR 45483 A],20 µM,-20%,2.4 µM,8,
Fc1ccc(-c2nnc(NCc3ccncc3)s2)cc1 [SR 45482 A],,-53%,,,
"Cc1cc(C)c(-c2nnc(NCCCN(C)C)s2)c(C)c1.Cl.Cl [SR 45341 A, 2-(3-dimethylaminopropylamino)-5-(2,4,6-trimethylphenyl)-1,3,4 thiadiazole dihydrochloride]",72 µM,-74%,0.45 µM,160,LD50 at 24 h [4]: > 300 mg/kg
CN1CCN(CCCNc2nnc(-c3ccc(Cl)cc3)s2)CC1 [SR 45489 A],26 µM,-29%,3.6 µM,7,
CN1CCCC1CCNc1nnc(-c2ccc(Cl)cc2Cl)s1 (centres unmarked) [SR 45490 A],,-73%,,,
